The values that follow come from patent publication US4734418A, “Quinazoline compounds and antihypertensives” (priority 1984, dated 1988).

Series [1] relates to Spontaneously Hypertensive Rats. The experiment in a line: Test 1: antihypertensive effects (systolic tail artery blood pressure) and heart rate in spontaneously hypertensive rats, oral. In kind it is in vivo, rat (male, SHR). The settings on record: for change in vivo at 1 mg/kg: Rattus norvegicus; for Change (%) in heart rate: maximum value. In a few lines:
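Male SHRs aged 20 weeks or older (350-430 g), with systolic pressure of 180 mmHg or higher, were used in groups of 3-4. Compounds in 0.5% methylcellulose were given orally, mostly at 1 mg/Kg. Systolic tail-artery blood pressure and heart rate were measured together as percent change.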

The subject of another series is Mouse. The experiment in a line: Test 2: acute toxicity, mouse, oral. In kind it is in vivo, male ddy-mice. The settings on record: fourteenth day. As for the experimental part:
(§1) The acute toxicity of certain compounds of this invention were studied in the following manner.
(§2) Namely, male ddy-mice of 5 weeks of age and male Wister rats of 8 weeks of age were fasted for 18 hours and used in groups each of which was constituted of 4-5 of mice or rats. The compounds were each dissolved or suspended in a 0.5% methylcellulose solution and administered orally (P.O.). On the fourteenth day after the administration, their toxicity were judged.
(§3) Each numeral set indicates the number of dead animals/the number of teste
(§4) animals. Hyphens (--) indicate that no tests were effected.

A further series has as its system Rat. Briefly: Test 2: acute toxicity, rat, oral. In kind it is in vivo, male Wister rats. The settings on record: fourteenth day. As for the experimental part:
as §1, §2, §3, §4

Setting [2] is: SHR, oral 1 mg/Kg, 1 hour, read-out: Antihypertensive effects, change (%) in blood pressure, 1 hour later.
Where [3] appears, read: SHR, oral 1 mg/Kg, 3 hours, read-out: Antihypertensive effects, change (%) in blood pressure, 3 hours later.
Where [4] appears, read: SHR, oral 1 mg/Kg, 6 hours, read-out: Antihypertensive effects, change (%) in blood pressure, 6 hours later.
The mark [5] stands for this setting: SHR, oral 1 mg/Kg, 24 hours, read-out: Antihypertensive effects, change (%) in blood pressure, 24 hours later.
Where [6] appears, read: po, 1 h, read-out: Antihypertensive effects, change (%) in blood pressure, 1 hour later.
[7] abbreviates: po, 3 h, read-out: Antihypertensive effects, change (%) in blood pressure, 3 hours later.
Where [8] appears, read: po, 6 h, read-out: Antihypertensive effects, change (%) in blood pressure, 6 hours later.
Setting [9] is: po, 24 h, read-out: Antihypertensive effects, change (%) in blood pressure, 24 hours later.

Where two headings read alike, the source gives them in different places.

As to `CCN1C(=O)CCCc2nc(N3CCN(c4nc(N)c5cc(OC)c(OC)cc5n4)CC3)ncc21` [Example 32], the change in vivo at 1 mg/kg was -20.2% in series [1] (setting [2]), -30.5% in series [1] (setting [3]), -35.2% in series [1] (setting [4]) and -16.4% in series [1] (setting [5]). Further, the “Change (%) in heart rate” value in series [1] (SHR, oral 1 mg/Kg) was “+11.0%”. Moreover, the “Acute Toxicity, number of dead animals/number of tested animals” value with Mouse (1 g/Kg P.O.) is recorded as 0/5.

For `CCCC(=O)N1CCCN(c2nc(N)c3cc(OC)c(OC)cc3n2)CC1` [Example E-643, Bunazosin, reference compound], the change in vivo at 1 mg/kg is -4.8% in series [1] (setting [2]), -12% in series [1] (setting [3]), -13.5% in series [1] (setting [4]) and -6.7% in series [1] (setting [5]). In addition, the “Change (%) in heart rate” value in series [1] (SHR, oral 1 mg/Kg) is “+8.8%”. In addition, the “Acute Toxicity, number of dead animals/number of tested animals” value in the series on Mouse (1 g/Kg P.O.) is listed as 0/5; in the series with Rat (1 g/Kg P.O.), 2/4.

With `CCN1CCc2nc(N3CCN(c4nc(N)c5cc(OC)c(OC)cc5n4)CC3)ncc2C1=O` [Example 17], the change in vivo at 1 mg/kg is 0% in series [1] (setting [2]), -20.2% in series [1] (setting [3]), -27.9% in series [1] (setting [4]) and -12% in series [1] (setting [5]). For the same compound, the “Change (%) in heart rate” value in series [1] (SHR, oral 1 mg/Kg) was “+10.8%”. In the series on Mouse (1 g/Kg P.O.), the “Acute Toxicity, number of dead animals/number of tested animals” value is 0/5.

In the case of `CCOC(=O)c1cnc(N2CCN(c3nc(N)c4cc(OC)c(OC)cc4n3)CC2)nc1C` [Example 39], the change in vivo at 1 mg/kg in series [1] (setting [2]) was -4.4%; in series [1] (setting [3]) it was -12.7%; in series [1] (setting [4]), -7.3%; in series [1] (setting [5]) it was 1.5%. Further, in series [1] (SHR, oral 1 mg/Kg), the “Change (%) in heart rate” value is reported as “+2.2%”. Also, in the series on Mouse (1 g/Kg P.O.), the “Acute Toxicity, number of dead animals/number of tested animals” value was 0/5.

Take `COc1cc2nc(N3CCN(c4ncc5c(n4)N(C)C(=O)C5)CC3)nc(N)c2cc1OC` [Example 29]: the change in vivo at 1 mg/kg is -5.2% in series [1] (setting [2]), -23% in series [1] (setting [3]), -35.2% in series [1] (setting [4]) and -13.1% in series [1] (setting [5]). In series [1] (SHR, oral 1 mg/Kg), the “Change (%) in heart rate” value is reported as “+10.1%”. Further, the “Acute Toxicity, number of dead animals/number of tested animals” value in the series with Mouse (1 g/Kg P.O.) is 0/5; in the series on Mouse (3 g/Kg P.O.), 0/5; in the series on Rat (1 g/Kg P.O.), 0/5; in the series on Rat (3 g/Kg P.O.), 0/4.

In the case of `CCn1ccc2nc(N3CCN(c4nc(N)c5cc(OC)c(OC)cc5n4)CC3)ncc2c1=O` [Example 1, 4-Amino-6,7-dimethoxy-2-(4-(5,6-dihydro-6-ethyl-5-oxopyrido[4,3-d]pyrimidin-2-yl)piperazino)quinazoline], the change in vivo at 1 mg/kg in series [1] (setting [2]) is -10.7%; in series [1] (setting [3]) it was -17.3%; in series [1] (setting [4]) it was -23%; in series [1] (setting [5]) it was -8.2%. Also, in series [1] (SHR, oral 1 mg/Kg), the “Change (%) in heart rate” value is recorded as “+4.1%”. In addition, the “Acute Toxicity, number of dead animals/number of tested animals” value with Mouse (1 g/Kg P.O.), in the series on Mouse (3 g/Kg P.O.), with Rat (1 g/Kg P.O.) and in the series on Rat (3 g/Kg P.O.) was 0/5 in each case.

Take `CCN1Cc2nc(N3CCN(c4nc(N)c5cc(OC)c(OC)cc5n4)CC3)ncc2C1=O` [Example 23]: the change in vivo at 1 mg/kg in series [1] (setting [2]) was -11.7%; in series [1] (setting [3]) it was -21.9%; in series [1] (setting [4]), -27%; in series [1] (setting [5]), -2.6%. Also, the “Change (%) in heart rate” value in series [1] (SHR, oral 1 mg/Kg) is given as “+23.1%”. Also, the “Acute Toxicity, number of dead animals/number of tested animals” value in the series on Mouse (1 g/Kg P.O.) and in the series on Mouse (3 g/Kg P.O.) was 0/5 in each case.

With `COc1cc2nc(N3CCN(c4ncc5c(n4)CN(C(C)C)C5=O)CC3)nc(N)c2cc1OC` [Example 25], the change in vivo at 1 mg/kg in series [1] (setting [2]) is -4.3%; in series [1] (setting [3]), -23.9%; in series [1] (setting [4]) it was -35.4%; in series [1] (setting [5]), -6.7%. Moreover, the “Change (%) in heart rate” value in series [1] (SHR, oral 1 mg/Kg) is “+12.9%”. In the series with Mouse (1 g/Kg P.O.), the “Acute Toxicity, number of dead animals/number of tested animals” value is listed as 0/5.

On to `CCNc1nc(N2CCN(c3nc(N)c4cc(OC)c(OC)cc4n3)CC2)ncc1C(=O)OC.Cl` [Example 2, 4-Amino-6,7-dimethoxy-2-(4-(4-ethylamino-5-methoxycarbonylpyrimidine-2-yl)piperazino)quinazoline hydrochloride], for which the change in vivo at 1 mg/kg is -9% in series [1] (setting [2]), -23.9% in series [1] (setting [3]), -38.8% in series [1] (setting [4]) and -16.4% in series [1] (setting [5]). Also, the “Change (%) in heart rate” value in series [1] (SHR, oral 1 mg/Kg) is “+18.4%”. Also, the “Acute Toxicity, number of dead animals/number of tested animals” value in the series on Mouse (1 g/Kg P.O.), in the series on Mouse (3 g/Kg P.O.), in the series with Rat (1 g/Kg P.O.) and with Rat (3 g/Kg P.O.) was 0/5 throughout.

`COc1cc2nc(N3CCN(C(=O)c4ccco4)CC3)nc(N)c2cc1OC` [Prazosin, prazosin, reference compound]: the change in vivo at 1 mg/kg was -23.6% in series [1] (setting [6]), -25.1% in series [1] (setting [7]), -24.6% in series [1] (setting [8]) and -5% in series [1] (setting [9]). The “Change (%) in heart rate” value in series [1] (SHR, oral 1 mg/Kg) was “+8.0%”. Moreover, the “Acute Toxicity, number of dead animals/number of tested animals” value is given as 0/5 in the series with Mouse (1 g/Kg P.O.), 0/5 in the series on Mouse (3 g/Kg P.O.), 0/5 with Rat (1 g/Kg P.O.) and 0/3 in the series on Rat (3 g/Kg P.O.).

For `CCN1C(=O)Cc2cnc(N3CCN(c4nc(N)c5cc(OC)c(OC)cc5n4)CC3)nc21` [Example 28], the change in vivo at 1 mg/kg in series [1] (setting [2]) is -17.2%; in series [1] (setting [3]) it was -15.3%; in series [1] (setting [4]), -31.6%; in series [1] (setting [5]), -3.3%. For the same compound, the “Change (%) in heart rate” value in series [1] (SHR, oral 1 mg/Kg) was “+11.7%”. Besides, the “Acute Toxicity, number of dead animals/number of tested animals” value with Mouse (1 g/Kg P.O.) is 0/5.

Consider `COc1cc2nc(N3CCN(C(=O)C4CCCO4)CC3)nc(N)c2cc1OC` (stereo not shown) [Terazosin, terazosin, reference compound], for which the change in vivo at 1 mg/kg in series [1] (setting [6]) is -22.4%; in series [1] (setting [7]), -25.9%; in series [1] (setting [8]), -23.4%; in series [1] (setting [9]), -5.4%. Besides, the “Change (%) in heart rate” value in series [1] (SHR, oral 1 mg/Kg) is given as “+7.2%”. Also, the “Acute Toxicity, number of dead animals/number of tested animals” value with Mouse (1 g/Kg P.O.) is given as 0/5; with Mouse (3 g/Kg P.O.) it was 1/5.

Regarding `CCNC(=O)c1cnc(N2CCN(c3nc(N)c4cc(OC)c(OC)cc4n3)CC2)nc1NCC` [Example 66], the change in vivo at 1 mg/kg was -18% in series [1] (setting [2]), -23.7% in series [1] (setting [3]), -28.9% in series [1] (setting [4]) and -16% in series [1] (setting [5]). The “Change (%) in heart rate” value in series [1] (SHR, oral 1 mg/Kg) was “+3.8%”. In addition, in the series on Mouse (1 g/Kg P.O.), the “Acute Toxicity, number of dead animals/number of tested animals” value is listed as 0/5.

`COc1cc2nc(N3CCN(c4ncc5ccccc5n4)CC3)nc(N)c2cc1OC` [Example 70]: the change in vivo at 1 mg/kg in series [1] (setting [2]) is -7.8%; in series [1] (setting [3]), -17.5%; in series [1] (setting [4]), -23.3%; in series [1] (setting [5]) it was -4.4%. Further, in series [1] (SHR, oral 1 mg/Kg), the “Change (%) in heart rate” value was “+13.7%”. Further, in the series with Mouse (1 g/Kg P.O.), the “Acute Toxicity, number of dead animals/number of tested animals” value is given as 0/4.

`CCN1CCC(=O)c2cnc(N3CCN(c4nc(N)c5cc(OC)c(OC)cc5n4)CC3)nc21` [Example 21]: the change in vivo at 1 mg/kg in series [1] (setting [2]) is -17.2%; in series [1] (setting [3]), -23.2%; in series [1] (setting [4]) it was -23.6%; in series [1] (setting [5]) it was -3.4%. Also, the “Change (%) in heart rate” value in series [1] (SHR, oral 1 mg/Kg) is listed as “+7.4%”. In addition, the “Acute Toxicity, number of dead animals/number of tested animals” value with Mouse (1 g/Kg P.O.) is listed as 0/4.

For the compound `CCCN1Cc2nc(N3CCN(c4nc(N)c5cc(OC)c(OC)cc5n4)CC3)ncc2C1=O` [Example 26], the change in vivo at 1 mg/kg in series [1] (setting [2]) is -8.8%; in series [1] (setting [3]), -15.2%; in series [1] (setting [4]) it was -21.6%; in series [1] (setting [5]), -4.9%. Moreover, in series [1] (SHR, oral 1 mg/Kg), the “Change (%) in heart rate” value was “+9.8%”.

`COc1cc2nc(N3CCN(c4ncc5c(n4)N(C(C)C)C(=O)C5)CC3)nc(N)c2cc1OC` [Example 30]: the change in vivo at 1 mg/kg was -7.4% in series [1] (setting [2]), -24.7% in series [1] (setting [3]), -32.1% in series [1] (setting [4]) and -8.8% in series [1] (setting [5]). Also, the “Change (%) in heart rate” value in series [1] (SHR, oral 1 mg/Kg) was “+11.7%”. Besides, the “Acute Toxicity, number of dead animals/number of tested animals” value with Mouse (1 g/Kg P.O.) is reported as 0/5.

Take `CCn1ccc2c(c1=O)CN=C(N1CCN(c3nc(N)c4cc(OC)c(OC)cc4n3)CC1)N2` [Example 35]: the change in vivo at 1 mg/kg was -0.5% in series [1] (setting [2]), -8.7% in series [1] (setting [3]), -16.3% in series [1] (setting [4]) and -15.9% in series [1] (setting [5]). Further, the “Change (%) in heart rate” value in series [1] (SHR, oral 1 mg/Kg) is recorded as “+9.1%”.
